Results: patent publication US7446127B2, “Chroman carboxylic acid derivatives for the treatment of diabetes and lipid disorders” (SK Holdings Co, Ltd., priority 2003, dated 2008)

Columns and labels:
[1] = test system: STZ rat; experiment: Blood glucose lowering effect in STZ rat; type: in vivo; settings: STZ rat (data not shown)
[2] = test system: db/db mice; experiment: Oral Glucose Tolerance Test (OGTT) in db/db mice; type: in vivo; settings: 30 mg/kg/d for 9 days
Description: (§1) Mice used in this study were standard model of type II diabetes developed by Jackson Laboratories (Bar Harbor, Me.). Male, 8-week-old db/db mice were housed six per cage in hanging wire bottom cages with standard laboratory conditions. The mice had free access to normal chow (Purina Rodent Chow) and water. At the age of 11-12 weeks, mice were bled in the tail for glucose matching among the groups (n=6 per group). The grouped mice were then dosed orally with vehicle (CMC) or with compounds of formula I (30 mg/kg/d) for 7 days. Compound of formula I at 30 mg/kg/d was dosed as suspension in 0.5% CMC+0.2% Tween 80 in H2O. Fresh suspension was prepared for 8 days dosing and kept in a refrigerator. The suspension was administered by oral gavage daily in the morning. The control group received vehicle (dose 10 mL/kg). Blood glucose concentrations were monitored at basal and 3 hr post dose on day 4 and 8. For blood sampling, mice were placed in a restrainer and drop of blood was obtained by nick in the tip of the tail. Blood glucose concentrations were determined either by putting a drop of blood on a glucose strip for analysis by a glucometer or using a 10 μL plasma sample in a YSI (Yellow Spring Instruments, OH) analyzer. Results are expressed as absolute blood glucose concentrations (mg/dL) and % reduction that is achieved reduction relative to vehicle treated control group. Animals having more than 300 mg/dL of blood glucose were used for testing. Statistical significance (p<0.05) is given versus the appropriate sample in vehicle treated animals. On day 7, the mice were fasted overnight for 18 hrs and were bled in the tail for the glucose level checking then dosed with the testing compounds (30 mg/kg/d). After 2 hr, blood samples were taken and the rats were dosed with 10% glucose in water (10 ml/kg) orally and blood glucose was monitored at 15, 30, 60, 90 and 120 min after dosing. The blood samples were centrifuged and plasma samples were collected and analyzed for insulin, Tg and FFA. An Oral Glucose Tolerance Test (OGTT) was performed both in db/db mice and in high fat (HF) rats after dosing 30 mg/kg/d of compounds of Examples 1 and 2 for 9 days. For OGTT and ITT studies, Sprague-Dawley rats were prepared by feeding high fat (HF) diet (60% calorie from fat) for 6 weeks. Before the study, they were matched into groups on the basis of blood glucose levels.

[3] = Solubility in dosing vehicle; type: physicochemical
Excerpt: It appeared that compounds of Examples 1 and 2 were not soluble in 0.5% CMC vehicle.

[4] = test system: HF rat; experiment: Insulin tolerance test (ITT) in HF rat; type: in vivo, Sprague-Dawley rats; settings: 30 mg/kg oral, insulin 0.25 U/kg i.p. 2 hr later
Description: An Oral Glucose Tolerance Test (OGTT) was performed both in db/db mice and in high fat (HF) rats after dosing 30 mg/kg/d of compounds of Examples 1 and 2 for 9 days. For OGTT and ITT studies, Sprague-Dawley rats were prepared by feeding high fat (HF) diet (60% calorie from fat) for 6 weeks. Before the study, they were matched into groups on the basis of blood glucose levels. Insulin tolerance test (ITT) was performed in HF rat which were prepared in the same manner with OGTT test animal. On the day of the study, rats were orally dosed with the testing compounds (30 mg/kg) and 2 hr later, rats were dosed with insulin (0.25 U/kg, i.p.) in 0.1% BSA solution in saline. Blood glucose of the rat was measured at 15, 30, 60, 120 min after dose.

[5] = test system: differentiated 3T3-L1 adipocytes; experiment: Glucose transport assay (2-deoxy-D-glucose uptake); type: cell-based; settings: 48 hr; for Fold Stimulation (50 μM) of 2-deoxy-D-glucose uptake, Insulin + Compound: 50 μM compound + 100 nM insulin; for fold induction at 50 µM: Mus musculus, 50 μM compound alone, read-out: Fold Stimulation (50 μM) of 2-deoxy-D-glucose uptake, Compound only
Description: 3T3-L1 fibroblasts (American Type Culture Collection) were plated and grown for 2 days postconfluence in Dulbecco's modified Eagle's medium (DMEM; 4,500 mg/L glucose, HyClone) supplemented 10% FBS, 10 μg/mL penicillin and streptomycin in an atmosphere of 5% CO2 at 37° C. Adipocyte differentiation was then induced using standard protocol. After 48 hr, the differentiation medium was replaced with maintenance medium containing DMEM supplemented with 10% FBS. The maintenance medium was changed every 3 days until the cells were utilized for experimentation. Glucose transport activity was measured in the presence or absence of insulin and the protocol was modified from Kletzien, R F et al. (1992) Molecular Pharmacology 41:393-398. Briefly, differentiated 3T3-L1 adipocytes were incubated with vehicle (DMSO), insulin (100 nM) alone, test compound (50 μM) alone and a combination of insulin (100 nM)+test compound (50 μM) for 48 hr. Medium was changed twice a day in the presence of compound. Glucose uptake was measured using 2-Deoxy-D-[1−^3H] glucose as label after 90 min incubation with each compound. […] In the series of compounds, one of the best result was obtained with 7-[2-(5-methyl-2-phenyl-4-oxazolyl)-ethoxy]-chroman-3-carboxylic acid (Example 1).

[6] = test system: db/db mice; experiment: Efficacy test for blood glucose lowering (db/db mice); type: in vivo; settings: 30 mg/kg/d oral
Description: as §1, with “FFA.” for “FFA. An Oral Glucose Tolerance Test (OGTT) was performed both in db/db mice and in high fat (HF) rats after dosing 30 mg/kg/d of compounds of Examples 1 and 2 for 9 days. For OGTT and ITT studies, Sprague-Dawley rats were prepared by feeding high fat (HF) diet (60% calorie from fat) for 6 weeks. Before the study, they were matched into groups on the basis of blood glucose levels.”

[7] = test system: high fat (HF) rats; experiment: Oral Glucose Tolerance Test (OGTT) in high fat (HF) rats; type: in vivo, Sprague-Dawley rats; settings: 30 mg/kg/d for 9 days
Description: An Oral Glucose Tolerance Test (OGTT) was performed both in db/db mice and in high fat (HF) rats after dosing 30 mg/kg/d of compounds of Examples 1 and 2 for 9 days. For OGTT and ITT studies, Sprague-Dawley rats were prepared by feeding high fat (HF) diet (60% calorie from fat) for 6 weeks. Before the study, they were matched into groups on the basis of blood glucose levels.

| SMILES | Fold Stimulation (50 μM) of 2-deoxy-D-glucose uptake, Insulin + Compound [5] | fold induction at 50 µM [5] | also measured |
| --- | --- | --- | --- |
| Cc1oc(-c2ccc(-c3ccccc3)cc2)nc1CCOc1ccc2c(c1)OCC(C(=O)O)C2 (stereo not shown) [Example 2, 7-[2-(5-Methyl-2-(4-phenyl)phenyl-4-oxazolyl)ethoxy]chromane-3-carboxylic acid] | 6.4 fold | 1.5 | blood glucose lowering effect [1]: did not reduce blood glucose; AUC of Glucose in db/db, % reduction [2]: 14.0%; AUC of Glucose in db/db, Observed value ([2]; control 40858): 32406 mg/dl × 120 min; solubility in 0.5% CMC vehicle [3]: not soluble; AUC of Glucose in high fat rat, % reduction [4]: 4.2%; AUC of Glucose in high fat rat, Observed value ([4]; control 13359): 12796 mg/dl × 120 min; Fatty acid % reduction ([6]; plasma): −21.1%; Insulin % reduction ([6]; plasma): −72.7%; Glucose Max % efficacy ([6]; suspension in 0.5% CMC + 0.2% Tween 80): 70.3%; Glucose Observed value ([6]; suspension in 0.5% CMC + 0.2% Tween 80, control 261.2): 148.3 mg/dL; AUC of Glucose in high fat rat, % reduction [7]: 10.1%; AUC of Glucose in high fat rat, Observed value ([7]; control 14053): 12631 mg/dl × 120 min |
| Cc1oc(-c2ccc(F)cc2)nc1CCOc1ccc2c(c1)OCC(C(=O)O)C2 (stereo not shown) [Example 3] | 5.9 fold | 1.3 | – |
| Cc1oc(-c2cccs2)nc1CCOc1ccc2c(c1)OCC(C(=O)O)C2 (stereo not shown) [Example 4, 7-[2-(5-methyl-2-thien-2-yl-1,3-oxazol-4-yl)ethoxy]chromane-3-carboxylic acid] | 7.6 fold | 1.5 | – |
| O=C(O)C1COc2cc(OCCc3nc(-c4ccccc4)oc3-c3ccccc3)ccc2C1 (stereo not shown) [Example 5] | 8.1 fold | 1.7 | – |
| Cc1oc(-c2ccccc2)nc1COc1ccc2c(c1)OCC(C(=O)O)C2 (stereo not shown) [Example 6, 7-[(2-phenyl-5-methyl-1,3-oxazol-4-yl)methoxy]chromane-3-carboxylic acid] | 10.7 fold | 1.4 | – |
| Cc1oc(-c2ccccc2)nc1CCCOc1ccc2c(c1)OCC(C(=O)O)C2 (stereo not shown) [Example 7, 7-[3-(5-Methyl-2-phenyl-4-oxazolyl)propoxy]chromane-3-carboxylic acid] | 6.5 fold | 1.4 | – |
| Cc1oc(-c2ccccc2)nc1CCOc1ccc2c(c1)OCC(C(=O)NS(=O)(=O)c1ccccc1)C2 (stereo not shown) [Example 8] | 8.8 fold | 1.5 | – |
| Cc1oc(-c2ccccc2)nc1CCOc1ccc2c(c1)OCC(C(=O)NS(C)(=O)=O)C2 (stereo not shown) [Example 9] | 6.2 fold | 1.2 | – |
| Cc1oc(-c2ccc(Br)cc2)nc1COc1ccc2c(c1)OCC(C(=O)O)C2 (stereo not shown) [Example 10, 7-[(2-(4-bromophenyl)-5-methyl-1,3-oxazol-4-yl)methoxy]chromane-3-carboxylic acid] | 5.1 fold | 1 | – |
| Cc1oc(-c2ccc(-c3ccccc3)cc2)nc1COc1ccc2c(c1)OCC(C(=O)O)C2 (stereo not shown) [Example 11] | 4.6 fold | 1.3 | – |
| COC(=O)C1COc2cc(OCCc3nc(-c4ccccc4)oc3C)ccc2C1 (stereo not shown) [Example 12, Methyl 7-[2-(5-Methyl-2-phenyl-4-oxazolyl)ethoxy]chromane-3-carboxylate] | 6.0 fold | 1.1 | – |
| Cc1oc(-c2ccccc2)nc1CCOc1ccc2c(c1)OCC(C(N)=O)C2 (stereo not shown) [Example 13, 7-[2-(5-Methyl-2-phenyl-4-oxazolyl)ethoxy]chromane-3-carboxylic acid amide] | 8.8 fold | 1.7 | – |
| Cc1oc(-c2ccccc2)nc1CCOc1ccc2c(c1)OCC(CC(=O)O)C2 (stereo not shown) [Example 14, {7-[2-(5-Methyl-2-phenyl-oxazol-4-yl)-ethoxy]-chroman-3-yl}-acetic acid] | 6.9 fold | 1.4 | – |
| CCc1ccc(CCOc2ccc(CC3SC(=O)NC3=O)cc2)nc1 (stereo not shown) [Pioglitazone, reference compound] | 7.6 fold | 1.9 | – |
